# ChEMBL document CHEMBL3397038, “A coumarin lignanoid from the stems of Kadsura heteroclita” (2015)
# Active and inactive are the calls of the source. No cut-off for these calls is given here.
# What was measured:
# Hepatitis B virus [1] = assay: Antiviral activity against hepatitis B viral in human HepG2(2.2.15) cells assessed as decrease in surface antigen HBsAg secretion at 25 ug/ml after 7 days; type: functional; settings: HepG2 2.2.15, 168 h
# Hepatitis B virus [2] = assay: Antiviral activity against hepatitis B viral in human HepG2(2.2.15) cells assessed as decrease in surface antigen HBeAg secretion at 25 ug/ml after 7 days; type: functional; settings: HepG2 2.2.15, 168 h
# [3] = Antifibrotic activity in […] cells assessed as inhibition of acetaldehyde-stimulated cell growth at 50 uM/L; type: functional
# Primary neuron = assay: Neuroprotective activity against serum-deprivation-induced neurotoxicity in rat primary cerebellar granule neuronal cells assessed as cell viability at 10 uM by MTT assay relative to control; type: functional, cell-based
# PC-12 = assay: Neuroprotective activity against serum-deprivation-induced neurotoxicity in rat PC12 cells assessed as cell viability at 10 uM after 48 hrs by MTT assay relative to control; type: functional, cell-based
Compound,inhibition at 25 µg/mL (Hepatitis B virus [1]),inhibition at 25 µg/mL (Hepatitis B virus [2]),inhibition at 50 µM [3],Activity (Primary neuron),Activity (PC-12)
Nc1ccn([C@@H]2CS[C@H](CO)O2)c(=O)n1 [LAMIVUDINE],10%,46%,–,–,–
O=c1oc2cc3c(cc2cc1[C@@H](CO)Cc1ccc2c(c1)OCO2)OCO3,57%,48%,71%,Active,Active
